In one assay the test system is H37Rv Mtb. The assay is described as follows: MIC against replicating H37Rv Mtb in GAS and 7H12 media. It is filed as cell-based, Mycobacterium tuberculosis. The conditions noted are these: for MIC: Mycobacterium tuberculosis, H37RV, read-out: MIC mean +/- against replicating Mtb in medium: GAS (μg/mL), GAS medium, H37Rv, recalculated from μM.
The test system of the next assay is Mycobacterium bovis BCG. The assay is described as follows: MIC against non-tubercular mycobacteria: M. bovis BCG. It is filed as cell-based. The conditions noted are these: Mycobacterium tuberculosis variant bovis BCG.
The subject of another assay is Mycobacterium avium. The assay can be described thus: MIC against non-tubercular mycobacteria: M. avium. It is filed as cell-based.
For another assay, the system named is Mycobacterium kansasii. The assay can be described thus: MIC against non-tubercular mycobacteria: M. kansasii. It is filed as cell-based.

Values after ≈ are worked out from the molar mass of the structure shown.

On to `Cc1ccn2c(C(=O)NCc3ccccc3)c(C)nc2c1` [Compound 1, N-benzyl-2,7-dimethyl-imidazo[1,2-a]pyridine-3-carboxamide], for which the “times more potent than 12” value with H37Rv Mtb (MIC's of 0.2 and 70 μM) is on record as 350 times.
Take `Cc1ccc2nc(C)c(C(=O)NCc3ccccc3)n2c1` [Compound 2]: the MIC against Mycobacterium bovis BCG is 1 µM (≈ 0.279 µg/mL); in the assay with Mycobacterium avium, 16 µM (≈ 4.47 µg/mL); in the assay on H37Rv Mtb it was 0.031 ± 0.002 µg/mL (≈ 0.111 µM).
With `Cc1cnc2nc(C)c(C(=O)NCc3ccccc3)n2c1` [Compound 6, N-benzyl-2,6-dimethylimidazo[1,2-a]pyrimidine-3-carboxamide], the MIC is 8 µM (≈ 2.24 µg/mL) against Mycobacterium bovis BCG, 19 µM (≈ 5.33 µg/mL) against Mycobacterium kansasii and 0.36 ± 0.06 µg/mL (≈ 1.28 µM) in the assay with H37Rv Mtb.
As to `Cc1ccc2nc(C)c(C(=O)NCc3ccccc3)n2n1` [Compound 7, N-benzyl-2,6-dimethylimidazo[1,2-b]pyridazine-3-carboxamide], the MIC with H37Rv Mtb was 17.9 ± 0.5 µg/mL (≈ 63.9 µM).
On to `Cc1ccc2c(C(=O)NCc3ccccc3)c(C)[nH]c2c1` [Compound 8, N-Benzyl-2,6-dimethyl-1H-indole-3-carboxamide], for which the MIC in the assay on H37Rv Mtb was 12.2 ± 0.3 µg/mL (≈ 43.8 µM).
Consider `Cc1ccc2c(C(=O)NCc3ccccc3)n[nH]c2c1` [Compound 9, N-benzyl-6-methyl-1H-indazole-3-carboxamide], for which the MIC in the assay on H37Rv Mtb was 10.8 ± 0.9 µg/mL (≈ 40.7 µM).
With `Cc1ccn2c(C(=O)NCc3ccccc3)nnc2c1` [Compound 10, N-benzyl-7-methyl-[1,2,4]triazolo[4,3-a]pyridine-3-carboxamide], the “negative effect on potency relative to compound 2” value in the assay with H37Rv Mtb (GAS medium, MIC of 0.1 and 101 μM) came to 1000 x. Besides, in the assay on H37Rv Mtb, the MIC was 27 ± 1.6 µg/mL (≈ 101 µM).
In the case of `Cc1cc(C)n2nc(C(=O)NCc3ccccc3)nc2n1` [Compound 11, N-benzyl-5,7-dimethyl-[1,2,4]triazolo[1,5-a]pyrimidine-2-carboxamide], the MIC with H37Rv Mtb is 35.4 ± 0.8 µg/mL (≈ 126 µM).
As to `Cc1ccn2c(C)c(C(=O)NCc3ccccc3)nc2c1` [Compound 12, N-benzyl-3,7-dimethylimidazo[1,2-a]pyridine-2-carboxamide], the MIC in the assay on H37Rv Mtb was 19.6 ± 2.5 µg/mL (≈ 70.2 µM).

The values are drawn from article PMC4096046 (Bioorganic & medicinal chemistry letters, 2014).
